Measured values: US20250115612A1, “CERTAIN 2,5-DIAZABICYCLO[4.2.0]OCTANES AND OCTAHYDROFURO[3,4-B]PYRAZINES AS GLP-1 RECEPTOR MODULATORS” (ASTRAZENECA AB, priority 2021, published 2025)
pEC50, pIC50: −log10 of the molar value.

Columns and labels:
[1] = molecular target: T1, GLP-1R (Homo sapiens, UniProt P43220); test: EndoC cAMP accumulation assay (HTRF, EndoC-βH1 cells); format: cell-based; conditions: EndoC-βH1 human pancreatic β cell line
T1 construct: host or cells: EndoC-βH1
Outline: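 Thawed cryopreserved EndoC-βH1 cells, about 3000 per well, were stimulated for 30 min at room temperature. Buffer was HBSS with 25 mM HEPES pH 7.4, 0.1% BSA and 0.5 mM IBMX. cAMP was measured by competitive HTRF after 1 h lysis/detection (590/660 nm). Four-parameter fits gave % activation between basal and maximal GIP (82.5 nM) signal.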

[2] = molecular target: T2, human GLP-1R receptor (Homo sapiens, UniProt P43220, L260F); test: CHOK1 GLP-1R cAMP assay (HTRF); format: cell-based; conditions: CHO-K1 cells stably expressing human GLP-1R
T2 construct: expressed in transfected cells; host or cells: CHO-K1 (ATCC CCL-61)
Outline: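 Cells were CHO-K1 stably expressing human GLP-1R (Leu260Phe variant), at 800 cells/well in HEPES pH 7.4/HBSS/0.1% BSA with IBMX, stimulated 20 min at rt. cAMP was measured by competitive HTRF and converted via a standard curve. EC50 came from a 4-parameter logistic fit, with % effect relative to a saturating GLP-1(7-36)NH2 concentration.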

[3] = molecular target: T3, human phosphodiesterase-3A (Homo sapiens, UniProt Q14432); test: PDE3 assay (formation of 5'AMP from cAMP, SPA); format: biochemical; conditions: human recombinant enzyme expressed in Sf9 cells
T3 construct: host or cells: Sf9 (Spodoptera frugiperda)
Protocol: Evaluation of the effects of compounds on the activity of the human phosphodiesterase-3A is quantified by measuring the formation of 5′AMP from cAMP using a human recombinant enzyme expressed in a clonal isolate of Spodoptera frugiperda cells (Sf9) cells.
The test compound, reference compound or water (control) are added to a buffer containing 40 mM tris(hydroxymethyl)aminomethane (Tris)/HCl (pH 7.4) and 8 mM MgCl2, 450 nMcAMP and 0.25 μCi [3H]cAMP.
Thereafter, the reaction is initiated by addition of the enzyme (about 1 U) and the mixture is incubated for 20 min at 22° C.
For basal control measurements, the enzyme is omitted from the reaction mixture.
Following incubation SPA beads are added. After 30 min at 22° C. under shaking, the amount of [^3H]5′AMP is quantified with a scintillation counter (Topcount, Packard).
The results are expressed as a percent inhibition of the control enzyme activity. The standard inhibitory reference compound is milrinone (CAS number 78415-72-2), which is tested in each experiment at several concentrations to obtain an inhibition curve from which its IC50 value is calculated.

T3 sequence (Q14432 whole entry): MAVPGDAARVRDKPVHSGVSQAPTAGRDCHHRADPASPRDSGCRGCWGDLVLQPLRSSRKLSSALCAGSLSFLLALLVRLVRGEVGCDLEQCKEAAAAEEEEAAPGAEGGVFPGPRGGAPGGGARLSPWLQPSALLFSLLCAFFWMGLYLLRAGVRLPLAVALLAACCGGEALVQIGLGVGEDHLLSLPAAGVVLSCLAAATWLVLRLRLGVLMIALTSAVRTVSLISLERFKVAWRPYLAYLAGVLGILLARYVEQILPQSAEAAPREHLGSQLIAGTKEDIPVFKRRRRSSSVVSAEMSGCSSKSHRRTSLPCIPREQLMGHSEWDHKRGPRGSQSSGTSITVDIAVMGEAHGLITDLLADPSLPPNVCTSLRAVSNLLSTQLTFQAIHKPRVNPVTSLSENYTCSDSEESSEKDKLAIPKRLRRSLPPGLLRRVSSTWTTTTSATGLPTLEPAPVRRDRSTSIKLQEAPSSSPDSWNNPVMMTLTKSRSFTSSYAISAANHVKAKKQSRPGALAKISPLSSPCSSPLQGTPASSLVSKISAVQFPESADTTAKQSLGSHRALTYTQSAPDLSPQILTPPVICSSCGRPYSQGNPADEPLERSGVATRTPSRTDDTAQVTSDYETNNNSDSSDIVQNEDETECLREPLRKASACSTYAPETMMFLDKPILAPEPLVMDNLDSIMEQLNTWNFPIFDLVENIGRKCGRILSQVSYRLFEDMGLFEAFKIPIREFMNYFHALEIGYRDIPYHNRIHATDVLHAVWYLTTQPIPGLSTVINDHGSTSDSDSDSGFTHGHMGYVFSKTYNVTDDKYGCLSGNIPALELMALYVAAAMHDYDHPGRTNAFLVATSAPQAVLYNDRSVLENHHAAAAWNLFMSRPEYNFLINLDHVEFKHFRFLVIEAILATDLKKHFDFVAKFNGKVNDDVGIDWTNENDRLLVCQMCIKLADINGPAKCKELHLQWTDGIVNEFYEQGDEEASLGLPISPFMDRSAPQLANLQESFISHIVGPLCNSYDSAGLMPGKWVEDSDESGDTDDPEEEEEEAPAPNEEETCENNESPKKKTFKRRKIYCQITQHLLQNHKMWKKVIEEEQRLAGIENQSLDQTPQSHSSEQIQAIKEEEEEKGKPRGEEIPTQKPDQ
T1 sequence (P43220 24-463): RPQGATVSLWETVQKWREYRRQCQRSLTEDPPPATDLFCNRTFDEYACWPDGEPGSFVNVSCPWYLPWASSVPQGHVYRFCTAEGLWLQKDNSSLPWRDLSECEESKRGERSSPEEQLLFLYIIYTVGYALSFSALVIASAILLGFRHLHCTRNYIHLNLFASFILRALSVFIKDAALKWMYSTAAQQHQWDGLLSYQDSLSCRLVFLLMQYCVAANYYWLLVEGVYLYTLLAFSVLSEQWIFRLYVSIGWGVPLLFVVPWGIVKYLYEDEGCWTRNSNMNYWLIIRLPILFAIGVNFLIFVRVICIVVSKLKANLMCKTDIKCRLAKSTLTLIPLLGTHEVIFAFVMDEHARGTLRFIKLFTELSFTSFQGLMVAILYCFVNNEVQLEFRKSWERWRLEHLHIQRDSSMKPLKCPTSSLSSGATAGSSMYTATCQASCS
T2 sequence (P43220 24-463 L260F): as the sequence (P43220 24-463) above, with L237F counted along it

`O=C(O)c1cc(F)c2nc(CN3CCN(c4cccc(OCc5ccc(Cl)cc5F)n4)[C@@H]4COC[C@@H]43)n(C[C@@H]3CCO3)c2c1` (single isomer, unassigned) [Example 19a, 2-(((4aR*,7aS*)-4-(6-((4-Chloro-2-fluorobenzyl)oxy)pyridin-2-yl)hexahydrofuro[3,4-b]pyrazin-1(2H)-yl)methyl)-4-fluoro-1-(((S)-oxetan-2-yl)methyl)-1H-benzo[d]imidazole-6-carboxylic acid] was tested, and the pEC50 [1] was 8.40, the pEC50 [2] was 8.82 and the pIC50 [3] was 4.66.
